Measurements as given in patent US9096591B2, “Tetracyclic compounds” (Medivation Technologies, Inc., priority 2007, dated 2015).

Key:
Conditions in all cases: percent inhibition of specific binding
[1] = target: T1, human recombinant serotonin (5-Hydroxytryptamine) 5-HT6 receptor (Homo sapiens, UniProt P50406); assay: Serotonin 5-HT6 radioligand binding ([3H]LSD); set-up: Inhibition of ligand binding, Ser. 5-HT6: concentration or dose not given beside the values
T1 construct: expressed in transfected cells; host or cells: human HeLa cells
T1 sequence (P50406 whole entry): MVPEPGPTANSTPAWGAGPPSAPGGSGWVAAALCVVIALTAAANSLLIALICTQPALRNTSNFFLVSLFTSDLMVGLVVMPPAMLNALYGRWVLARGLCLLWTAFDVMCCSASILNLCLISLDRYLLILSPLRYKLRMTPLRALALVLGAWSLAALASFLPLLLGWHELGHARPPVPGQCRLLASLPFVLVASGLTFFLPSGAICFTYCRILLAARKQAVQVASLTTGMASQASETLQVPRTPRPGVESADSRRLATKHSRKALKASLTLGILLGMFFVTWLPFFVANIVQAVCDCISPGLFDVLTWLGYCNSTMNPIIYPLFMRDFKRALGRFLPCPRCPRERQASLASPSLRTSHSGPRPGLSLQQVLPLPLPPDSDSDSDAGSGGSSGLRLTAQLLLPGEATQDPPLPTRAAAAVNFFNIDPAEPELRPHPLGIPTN
From the text: Receptor proteins were filtered and washed, the filters were then counted to determine [3H]LSD specifically bound. […] Biochemical assay results are presented as the percent inhibition of specific binding in Table 6.

[2] = target: T2, human recombinant adrenergic α2A receptor (Homo sapiens, UniProt P08913); assay: Adrenergic α2A radioligand binding ([3H]MK-912); set-up: Inhibition of ligand binding, Adren. alpha2A: concentration or dose not given beside the values
T2 construct: expressed in transfected cells; host or cells: insect Sf9 cells
T2 sequence (P08913 1-465): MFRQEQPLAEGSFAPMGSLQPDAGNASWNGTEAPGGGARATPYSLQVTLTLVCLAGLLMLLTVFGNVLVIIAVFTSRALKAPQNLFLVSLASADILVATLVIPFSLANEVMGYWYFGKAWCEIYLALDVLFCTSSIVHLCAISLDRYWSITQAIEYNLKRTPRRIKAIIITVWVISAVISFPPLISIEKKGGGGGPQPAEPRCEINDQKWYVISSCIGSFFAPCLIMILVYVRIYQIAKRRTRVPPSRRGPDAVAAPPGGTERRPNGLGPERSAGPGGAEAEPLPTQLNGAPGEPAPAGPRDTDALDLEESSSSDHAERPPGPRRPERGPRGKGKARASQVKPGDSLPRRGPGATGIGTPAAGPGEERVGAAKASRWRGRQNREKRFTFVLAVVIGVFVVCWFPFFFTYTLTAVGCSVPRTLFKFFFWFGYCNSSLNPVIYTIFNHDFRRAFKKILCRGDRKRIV
In short: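 Membranes from Sf9 cells expressing the receptor were incubated with 1 nM [3H]MK-912 for 60 minutes at 25° C in 50 mM Tris-HCl pH 7.4, 12.5 mM MgCl2, 2 mM EDTA. 10 μM WB-4101 defined non-specific binding. Values are percent inhibition of specific bound radioactivity after filtration.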

[3] = target: T3, human recombinant serotonin (5-Hydroxytryptamine) 5-HT2C receptor (Homo sapiens, UniProt P28335); assay: Serotonin 5-HT2C radioligand binding ([3H]Mesulergine); set-up: Inhibition of ligand binding, Ser. 5-HT2C: concentration or dose not given beside the values
T3 construct: expressed in transfected cells; host or cells: CHO-K1 cells
T3 sequence (P28335 33-458): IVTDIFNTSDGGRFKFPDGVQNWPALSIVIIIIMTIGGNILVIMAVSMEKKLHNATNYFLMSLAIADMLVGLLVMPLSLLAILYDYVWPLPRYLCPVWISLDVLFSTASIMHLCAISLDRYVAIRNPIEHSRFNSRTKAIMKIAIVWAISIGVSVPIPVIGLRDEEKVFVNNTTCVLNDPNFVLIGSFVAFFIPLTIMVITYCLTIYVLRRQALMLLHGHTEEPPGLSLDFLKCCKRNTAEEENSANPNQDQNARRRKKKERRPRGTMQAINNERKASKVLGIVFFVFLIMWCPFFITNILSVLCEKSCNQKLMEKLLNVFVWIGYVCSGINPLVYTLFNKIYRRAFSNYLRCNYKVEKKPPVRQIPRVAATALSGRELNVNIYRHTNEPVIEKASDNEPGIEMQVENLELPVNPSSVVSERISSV
Protocol: (§1) Compounds of the invention were incubated with 1 nM [^3H]Mesulergine for 60 minutes at 25° C. Non-specific binding was estimated in the presence of 1 μM Mianserin. Receptor proteins were filtered and washed, the filters were then counted to determine [^3H]Mesulergine specifically bound. […] Biochemical assay results are presented as the percent inhibition of specific binding in Table 6.

[4] = target: T4, human recombinant serotonin (5-Hydroxytryptamine) 5-HT2A receptor (Homo sapiens, UniProt P28223); assay: Serotonin 5-HT2A radioligand binding ([3H]Ketanserin)
T4 construct: expressed in transfected cells; host or cells: CHO-K1 cells
T4 sequence (P28223 whole entry): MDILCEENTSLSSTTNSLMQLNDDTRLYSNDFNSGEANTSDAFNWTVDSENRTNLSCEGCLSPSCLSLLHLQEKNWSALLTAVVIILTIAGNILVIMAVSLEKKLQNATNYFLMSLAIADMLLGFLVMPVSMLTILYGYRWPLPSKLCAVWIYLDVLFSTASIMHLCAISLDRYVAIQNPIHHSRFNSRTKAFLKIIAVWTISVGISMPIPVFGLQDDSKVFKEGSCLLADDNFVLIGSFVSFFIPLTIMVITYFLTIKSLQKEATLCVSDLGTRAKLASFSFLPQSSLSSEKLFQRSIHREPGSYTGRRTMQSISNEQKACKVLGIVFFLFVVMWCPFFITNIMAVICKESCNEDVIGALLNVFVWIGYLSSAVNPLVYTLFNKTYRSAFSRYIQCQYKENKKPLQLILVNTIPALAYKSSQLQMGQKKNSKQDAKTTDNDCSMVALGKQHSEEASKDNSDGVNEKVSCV
Protocol: as §1, with “with 0.5” for “with 1”, “nM [^3H]Ketanserin” for “nM [^3H]Mesulergine”, “determine [^3H]Ketanserin” for “determine [^3H]Mesulergine”

Structure (SMILES) | Inhibition of ligand binding, Ser. 5-HT6 [1] | Inhibition of ligand binding, Adren. alpha2A [2] | Inhibition of ligand binding, Ser. 5-HT2C [3] | Inhibition of ligand binding, Ser. 5-HT2A [4]
Cc1ccc(CCn2c3c(c4cc(C(F)(F)F)ccc42)CN(C)CC3)cc1 [Compound 47] | 99% | 98% | 89% | 92%
Cc1ccc2c(c1)c1c(n2CCc2ccc(C)[n+]([O-])c2)CCN(C)C1 [Compound 394, 5-(2-(2,8-dimethyl-3,4-dihydro-1H-pyrido[4,3-b]indol-5(2H)-yl)ethyl)-2-methylpyridine 1-oxide] | 5% | 15% | −8% | 3%
Cc1ccc2c(c1)c1c(n2CCc2ccc(C(=O)O)nc2)CCNC1 [Compound 262] | −4% | 8% | 6% | 6%
Cc1ccc2c(c1)c1c(n2CCc2ccccc2)CC(O)N(C)C1=O (centres unmarked) [Compound 215, 3,4-dihydro-3-hydroxy-2,8-dimethyl-5-phenethyl-2H-pyrido[4,3-b]indol-1(5H)-one] | 8% | 23% | 2% | −6%
CN1CCc2c(c3c(Cl)cccc3n2CCc2ccccc2)C1 [Compound 81] | 86% | 96% | 98% | 99%
Cc1ccc2c(c1)c1c(n2CCc2ccccc2)CCNC1 [Compound 228, 2,3,4,5-tetrahydro-8-methyl-5-phenethyl-1H-pyrido[4,3-b]indole] | 89% | 87% | 82% | 77%
CN1CCc2c(c3cccc(Cl)c3n2CCc2ccccc2)C1 [Compound 83] | 106% | 100% | 99% | 100%
CN1CCc2c(c3ccc(Cl)cc3n2CCC2CCCCC2)C1 [Compound 188, 7-chloro-5-(2-cyclohexylethyl)-2,3,4,5-tetrahydro-2-methyl-1H-pyrido[4,3-b]indole] | 67% | 80% | 66% | 58%
CN1CCc2c(c3cc(Cl)ccc3n2CCc2ccc(Cl)cc2)C1 [Compound 45, 5-(4-chlorophenethyl)-8-chloro-2,3,4,5-tetrahydro-2-methyl-1H-pyrido[4,3-b]indole] | 103% | 100% | 97% | 100%
Cc1ccc2c(c1)c1c(n2CCc2ccc(C)nc2)CC(=O)N(C)C1 [Compound 195, 1,2-dihydro-2,8-dimethyl-5-(2-(6-methylpyridin-3-yl)ethyl)-4H-pyrido[4,3-b]indol-3(5H)-one] | 8% | 4% | −5% | −4%
CN1CCc2c(c3ccc(Cl)cc3n2CCc2ccccc2)C1 [Compound 82] | 103% | 99% | 95% | 99%
Cc1ccc(C(O)Cn2c3c(c4cc(C)ccc42)CN(C)CC3)cc1 (racemic) [Compound 28, racemic-2-(1,2,3,4-tetrahydro-2,8-dimethylpyrido[4,3-b]indol-5-yl)-1-p-tolylethanol] | 99% | 100% | 100% | –
